Experimental data published in the supplement of paper PMC10307832.

How the values were obtained:
Assay in all cases: relative viability (nuclei count vs DMSO), 5 days (fraction); higher = more cells survive
[1] = tested on: NCI-H650
Outline: (§1)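 The day after seeding in 1536-well plates, lung cancer cell lines were treated by pin tool with a single drug, or with a fixed anchor-drug dose together with five library-drug doses (not always all listed) in √10 steps. After 5 days, a combined fix-and-stain solution (final 0.05% Triton X-100, 1% formaldehyde, 1 ug/ml Hoechst) was added. Nuclei counted on 4× images gave relative viability as treated counts over vehicle counts, reported as the median of duplicate plates.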

[2] = tested on: NCI-H1993
Outline: as §1

[3] = tested on: NCI-H23
Outline: as §1

[4] = tested on: NCI-H1355
Outline: as §1

[5] = tested on: LOU-NH91
Outline: as §1

[6] = tested on: NCI-H460
Outline: as §1

[7] = tested on: NCI-H1915
Outline: as §1

[8] = tested on: EKVX
Outline: as §1

[9] = tested on: BEN
Outline: as §1

[10] = tested on: LC-2-ad
Outline: as §1

[11] = tested on: A-427
Outline: as §1

[12] = tested on: NCI-H1793
Outline: as §1

[13] = tested on: LCLC-97TM1
Outline: as §1

[14] = tested on: NCI-H1650
Outline: as §1

[15] = tested on: NCI-H1666
Outline: as §1

[16] = tested on: RERF-LC-KJ
Outline: as §1

[17] = tested on: LU99A
Outline: as §1

[18] = tested on: NCI-H838
Outline: as §1

[19] = tested on: PC-3 [JPC-3]
Outline: as §1

[20] = tested on: SW 1573
Outline: as §1

[21] = tested on: NCI-H520
Outline: as §1

[22] = tested on: NCI-H2347
Outline: as §1

[23] = tested on: NCI-H2228
Outline: as §1

`O=C(O)CCCCC(CCSCc1ccccc1)SCc1ccccc1` (stereo not drawn) [CPI-613] + Nc1nc2[nH]cc(CCc3ccc(C(=O)N[C@@H](CCC(=O)O)C(=O)O)cc3)c2c(=O)[nH]1 [Pemetrexed] (partner 0.2 µM) showed a relative viability ([1]; first compound 5 µM) of 1.01, a relative viability ([1]; first compound 15.81 µM) of 0.821 and a relative viability ([1]; first compound 50 µM) of 0.897. For the same compound, the relative viability ([1]; first compound 158.11 µM) was 0.641, the relative viability ([1]; first compound 500 µM) was 0.826 and the relative viability ([2]; first compound 5 µM) was 0.601. The relative viability ([2]; first compound 15.81 µM) was 0.522, the relative viability ([2]; first compound 50 µM) was 0.537 and the relative viability ([2]; first compound 158.11 µM) was 0.378. It also gave a relative viability ([2]; first compound 500 µM) of 0.278, a relative viability ([3]; first compound 5 µM) of 0.673 and a relative viability ([3]; first compound 15.81 µM) of 0.621. It also gave a relative viability ([3]; first compound 50 µM) of 0.544, a relative viability ([3]; first compound 158.11 µM) of 0.19 and a relative viability ([3]; first compound 500 µM) of 0.0031. It also gave a relative viability ([4]; first compound 5 µM) of 1.02, a relative viability ([4]; first compound 15.81 µM) of 0.983 and a relative viability ([4]; first compound 50 µM) of 1.06. The relative viability ([4]; first compound 158.11 µM) was 0.754, the relative viability ([4]; first compound 500 µM) was 0.457 and the relative viability ([5]; first compound 5 µM) was 0.389. The relative viability ([5]; first compound 15.81 µM) was 0.332, the relative viability ([5]; first compound 50 µM) was 0.367 and the relative viability ([5]; first compound 158.11 µM) was 0.399. The relative viability ([5]; first compound 500 µM) was 0.233, the relative viability ([6]; first compound 5 µM) was 0.0641 and the relative viability ([6]; first compound 15.81 µM) was 0.0607. For the same compound, the relative viability ([6]; first compound 50 µM) was 0.0741, the relative viability ([6]; first compound 158.11 µM) was 0.0795 and the relative viability ([6]; first compound 500 µM) was 0.0168. The relative viability ([7]; first compound 5 µM) was 0.415, the relative viability ([7]; first compound 15.81 µM) was 0.513 and the relative viability ([7]; first compound 50 µM) was 0.458. For the same compound, the relative viability ([7]; first compound 158.11 µM) was 0.409, the relative viability ([7]; first compound 500 µM) was 0.0364 and the relative viability ([8]; first compound 5 µM) was 0.373. The relative viability ([8]; first compound 15.81 µM) was 0.355, the relative viability ([8]; first compound 50 µM) was 0.306 and the relative viability ([8]; first compound 500 µM) was 0.388. The relative viability ([9]; first compound 5 µM) was 0.809, the relative viability ([9]; first compound 15.81 µM) was 0.571 and the relative viability ([9]; first compound 50 µM) was 0.763. It also gave a relative viability ([9]; first compound 158.11 µM) of 0.76, a relative viability ([9]; first compound 500 µM) of 0.703 and a relative viability ([10]; first compound 5 µM) of 0.256. It also gave a relative viability ([10]; first compound 15.81 µM) of 0.275, a relative viability ([10]; first compound 50 µM) of 0.254 and a relative viability ([10]; first compound 158.11 µM) of 0.116. The relative viability ([10]; first compound 500 µM) was 0.0144, the relative viability ([11]; first compound 5 µM) was 1.04 and the relative viability ([11]; first compound 15.81 µM) was 0.84. For the same compound, the relative viability ([11]; first compound 50 µM) was 0.928, the relative viability ([11]; first compound 158.11 µM) was 0.857 and the relative viability ([11]; first compound 500 µM) was 0.444. It also gave a relative viability ([12]; first compound 5 µM) of 0.895, a relative viability ([12]; first compound 15.81 µM) of 0.71 and a relative viability ([12]; first compound 50 µM) of 0.832. For the same compound, the relative viability ([12]; first compound 158.11 µM) was 0.378, the relative viability ([12]; first compound 500 µM) was 0.0257 and the relative viability ([13]; first compound 5 µM) was 0.166. It also gave a relative viability ([13]; first compound 15.81 µM) of 0.208, a relative viability ([13]; first compound 50 µM) of 0.176 and a relative viability ([13]; first compound 158.11 µM) of 0.162. It also gave a relative viability ([13]; first compound 500 µM) of 0.0608, a relative viability ([14]; first compound 5 µM) of 0.346 and a relative viability ([14]; first compound 15.81 µM) of 0.376. It also gave a relative viability ([14]; first compound 50 µM) of 0.393, a relative viability ([14]; first compound 158.11 µM) of 0.151 and a relative viability ([14]; first compound 500 µM) of 0.0174. It also gave a relative viability ([15]; first compound 5 µM) of 0.892, a relative viability ([15]; first compound 15.81 µM) of 0.857 and a relative viability ([15]; first compound 50 µM) of 0.835. The relative viability ([15]; first compound 158.11 µM) was 0.489, the relative viability ([15]; first compound 500 µM) was 0.471 and the relative viability ([16]; first compound 5 µM) was 0.476. For the same compound, the relative viability ([16]; first compound 15.81 µM) was 0.47, the relative viability ([16]; first compound 50 µM) was 0.461 and the relative viability ([16]; first compound 158.11 µM) was 0.341. It also gave a relative viability ([16]; first compound 500 µM) of 0.312, a relative viability ([17]; first compound 5 µM) of 0.179 and a relative viability ([17]; first compound 15.81 µM) of 0.199. The relative viability ([17]; first compound 50 µM) was 0.179, the relative viability ([17]; first compound 158.11 µM) was 0.186 and the relative viability ([17]; first compound 500 µM) was 0.183. The relative viability ([18]; first compound 5 µM) was 0.232, the relative viability ([18]; first compound 15.81 µM) was 0.229 and the relative viability ([18]; first compound 50 µM) was 0.215. The relative viability ([18]; first compound 158.11 µM) was 0.149, the relative viability ([18]; first compound 500 µM) was 0.0989 and the relative viability ([19]; first compound 5 µM) was 1.13. It also gave a relative viability ([19]; first compound 50 µM) of 1.11, a relative viability ([19]; first compound 158.11 µM) of 0.606 and a relative viability ([19]; first compound 500 µM) of 0.362. For the same compound, the relative viability ([20]; first compound 5 µM) was 0.771, the relative viability ([20]; first compound 15.81 µM) was 0.777 and the relative viability ([20]; first compound 50 µM) was 0.781. For the same compound, the relative viability ([20]; first compound 158.11 µM) was 0.317, the relative viability ([20]; first compound 500 µM) was 0.0621 and the relative viability ([21]; first compound 5 µM) was 0.708. The relative viability ([21]; first compound 15.81 µM) was 0.627, the relative viability ([21]; first compound 50 µM) was 0.527 and the relative viability ([21]; first compound 158.11 µM) was 0.232. The relative viability ([21]; first compound 500 µM) was 0.155, the relative viability ([22]; first compound 5 µM) was 0.413 and the relative viability ([22]; first compound 15.81 µM) was 0.434. The relative viability ([22]; first compound 50 µM) was 0.405, the relative viability ([22]; first compound 158.11 µM) was 0.383 and the relative viability ([22]; first compound 500 µM) was 0.419. For the same compound, the relative viability ([23]; first compound 5 µM) was 0.362, the relative viability ([23]; first compound 15.81 µM) was 0.33 and the relative viability ([23]; first compound 50 µM) was 0.324. The relative viability ([23]; first compound 158.11 µM) was 0.272 and the relative viability ([23]; first compound 500 µM) was 0.059.
